# In patent US8618300B2, “Indolizine inhibitors of leukotriene production” (Boehringer Ingelheim International GmbH, priority 2008, dated 2013):
# Biological target: T1, recombinant human FLAP protein (Homo sapiens, UniProt P20292)
# T1 construct: made in house; host or cells: Sf9 insect cells (100,000 x g membrane pellet)
# T1 sequence (P20292 1-161): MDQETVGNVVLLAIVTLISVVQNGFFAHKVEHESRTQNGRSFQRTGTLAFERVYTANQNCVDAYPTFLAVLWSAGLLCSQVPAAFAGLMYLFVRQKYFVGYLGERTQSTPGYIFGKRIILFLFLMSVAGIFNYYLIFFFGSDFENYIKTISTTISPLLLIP
# Experiment: FLAP binding assay, Scintillation Proximity Assay, displacement of [125I]L-691,831
# Conditions: read-out: hFLAP binding IC50
# Protocol: Compounds are assessed for the ability to bind to FLAP in a binding assay that measures compound-specific displacement of an iodinated (^1251) FLAP inhibitor via a Scintillation Proximity Assay format (adapted from S. Charleson et al., Mol. Pharmacol., 1992, 41, 873-879).
# Cell pellets produced from sf9 insect cells expressing recombinant human FLAP protein are resuspended in buffer A [15 mM Tris-HCl (pH 7.5), 2 mM MgCl2, 0.3 mM EDTA, 1 mM PMSF]. The cells are lysed with a Dounce homogenizer and the material is centrifuged at 10,000×g for 10 minutes. The supernatant is then collected and centrifuged at 100,000×g for 60 minutes. To prepare membrane protein for an assay, an aliquot of the 100,000×g pellet is resuspended in 1 ml of buffer A, Dounce homogenized, and finally subjected to polytron mixing (30 seconds). Membrane protein (25 μl, 5 μg) is mixed with WGA SPA beads (Amersham) and stirred for 1 h. To an assay plate (Perkin Elmer FlexiPlate) is added 25 μl of test compound prepared in Binding buffer [100 mM Tris (pH 7.5), 140 mM NaCl, 5% glycerol, 2 mM EDTA, 0.5 mM TCEP, 0.05% Tween 20], 25 μl of [^125I]L-691,831 (an iodinated analog of MK-591, Charleson et al. Mol. Pharmacol., 41, 873-879, 1992) and finally 50 μl of the bead/protein mixture. (final concentrations: beads, 200 μg/well; protein, 5 μg/well; [^125I] probe, 0 08 nM/well (17 nCi/well). The plates are shaken for 2 h before reading on a Microbeta plate reader. Non-specific binding is determined by the addition of 10 μM cold L-691,831 compound.
row,SMILES,IC50
1,COc1ccc(-c2ccc(C(=O)c3c(CC(C)(C)C(=O)O)c(C(=O)C(C)(C)C)c4cc(C(C)C)ccn34)cc2)cn1,232 nM
2,CC(C)(C)C(=O)c1c(CC(C)(C)C(=O)O)c(C(=O)c2ccc(Cl)cc2)c2ccc(OCc3ccc4ccccc4n3)cn12,14 nM
3,Cc1nc(COc2ccn3c(C(=O)c4ccc(Cl)cc4)c(CC(C)(C)C(=O)O)c(C(=O)C(C)(C)C)c3c2)no1,90 nM
4,COc1ccc(C(=O)c2c(CC(C)(C)C(=O)O)c(C(=O)C(C)(C)C)c3cc(OCc4nc5ccccc5s4)ccn23)cc1,1 nM
5,CC(C)(C)C(=O)c1c(CC(C)(C)C(=O)O)c(C(=O)c2ccc(Cl)cc2)n2ccc(OCc3nc4ccccc4s3)cc12,4 nM
6,"CCC(C)(Cc1c(C(=O)C(C)(C)C)c2cc(OCc3csc(C)n3)ccn2c1C(=O)c1ccc(OC)cc1)C(=O)O (stereo not shown) [2-({1-(2,2-dimethylpropanoyl)-3-[(4-methoxyphenyl)carbonyl]-7-[(2-methyl-1,3-thiazol-4-yl)methoxy]indolizin-2-yl}methyl)-2-methylbutanoic acid]",2 nM
7,"COc1ccc(C(=O)c2c(CC(C(=O)O)C(C)C)c(C(=O)C(C)(C)C)c3cc(OCc4csc(C)n4)ccn23)cc1 (stereo not shown) [2-({1-(2,2-dimethylpropanoyl)-3-[(4-methoxyphenyl)carbonyl]-7-[(2-methyl-1,3-thiazol-4-yl)methoxy]indolizin-2-yl}methyl)-3-methylbutanoic acid]",13 nM
8,"CCCC(Cc1c(C(=O)C(C)(C)C)c2cc(OCc3csc(C)n3)ccn2c1C(=O)c1ccc(OC)cc1)C(=O)O (stereo not shown) [2-({1-(2,2-dimethylpropanoyl)-3-[(4-methoxyphenyl)carbonyl]-7-[(2-methyl-1,3-thiazol-4-yl)methoxy]indolizin-2-yl}methyl)pentanoic acid]",7 nM
9,"COc1ccc(C(=O)c2c(CC(C(=O)O)C(C)C)c(C(=O)C(C)(C)C)c3cc(OCc4nc(C)cs4)ccn23)cc1 (stereo not shown) [2-({1-(2,2-dimethylpropanoyl)-3-[(4-methoxyphenyl)carbonyl]-7-[(4-methyl-1,3-thiazol-2-yl)methoxy]indolizin-2-yl}methyl)-3-methylbutanoic acid]",4 nM
10,"CCC(C)(Cc1c(C(=O)C(C)(C)C)c2cc(OCc3cccc(C)n3)ccn2c1C(=O)c1ccc(OC)cc1)C(=O)O (stereo not shown) [2-({1-(2,2-dimethylpropanoyl)-3-[(4-methoxyphenyl)carbonyl]-7-[(6-methylpyridin-2-yl)methoxy]indolizin-2-yl}methyl)-2-methylbutanoic acid]",2 nM
11,"COc1ccc(C(=O)c2c(CC(C(=O)O)C(C)C)c(C(=O)C(C)(C)C)c3cc(OCc4cccc(C)n4)ccn23)cc1 (stereo not shown) [2-({1-(2,2-dimethylpropanoyl)-3-[(4-methoxyphenyl)carbonyl]-7-[(6-methylpyridin-2-yl)methoxy]indolizin-2-yl}methyl)-3-methylbutanoic acid]",3 nM
12,"CCCC(Cc1c(C(=O)C(C)(C)C)c2cc(OCc3cccc(C)n3)ccn2c1C(=O)c1ccc(OC)cc1)C(=O)O (stereo not shown) [2-({1-(2,2-dimethylpropanoyl)-3-[(4-methoxyphenyl)carbonyl]-7-[(6-methylpyridin-2-yl)methoxy]indolizin-2-yl}methyl)pentanoic acid]",3 nM
13,"CCCC(Cc1c(C(=O)C(C)(C)C)c2cc(OCc3nc(C)cs3)ccn2c1C(=O)c1ccc(Cl)c(Cl)c1)C(=O)O (stereo not shown) [2-({3-[(3,4-dichlorophenyl)carbonyl]-1-(2,2-dimethylpropanoyl)-7-[(4-methyl-1,3-thiazol-2-yl)methoxy]indolizin-2-yl}methyl)pentanoic acid]",15 nM
14,"CCCC(Cc1c(C(=O)C(C)(C)C)c2cc(OCc3cccc(C)n3)ccn2c1C(=O)c1ccc(Cl)c(Cl)c1)C(=O)O (stereo not shown) [2-({3-[(3,4-dichlorophenyl)carbonyl]-1-(2,2-dimethylpropanoyl)-7-[(6-methylpyridin-2-yl)methoxy]indolizin-2-yl}methyl)pentanoic acid]",2 nM
15,"CCCC(Cc1c(C(=O)C(C)(C)C)c2cc(OCc3cccc(C)n3)ccn2c1C(=O)c1ccc(Cl)c(C)c1)C(=O)O (stereo not shown) [2-({3-[(4-chloro-3-methylphenyl)carbonyl]-1-(2,2-dimethylpropanoyl)-7-[(6-methylpyridin-2-yl)methoxy]indolizin-2-yl}methyl)pentanoic acid]",3 nM
16,"COc1ccc(C(=O)c2c(CC(C(=O)O)C(C)C)c(C(=O)C(C)(C)C)c3cc(OCc4nc5ccccc5s4)ccn23)cc1 (stereo not shown) [2-({7-(1,3-benzothiazol-2-ylmethoxy)-1-(2,2-dimethylpropanoyl)-3-[(4-methoxyphenyl)carbonyl]indolizin-2-yl}methyl)-3-methylbutanoic acid]",1 nM
17,"COc1ccc(C(=O)c2c(CC(C(=O)O)C(C)C)c(C(=O)C(C)(C)C)c3cc(OCc4ccc5ccccc5n4)ccn23)cc1 (stereo not shown) [2-{[1-(2,2-dimethylpropanoyl)-3-[(4-methoxyphenyl)carbonyl]-7-(quinolin-2-ylmethoxy)indolizin-2-yl]methyl}-3-methylbutanoic acid]",1 nM
18,"COc1ccc(C(=O)c2c(CC(C)(C)C(=O)O)c(C(=O)C(C)(C)C)c3cc(OCc4ccc5ccccc5n4)ccn23)cc1 [3-[1-(2,2-dimethylpropanoyl)-3-[(4-methoxyphenyl)carbonyl]-7-(quinolin-2-ylmethoxy)indolizin-2-yl]-2,2-dimethylpropanoic acid]",1 nM
19,"COc1ccncc1-c1ccc(C(=O)c2c(CC(C)(C)C(=O)O)c(C(=O)C(C)(C)C)c3cc(OCc4ccccn4)ccn23)cc1 [3-[1-(2,2-dimethylpropanoyl)-3-{[4-(4-methoxypyridin-3-yl)phenyl]carbonyl}-7-(pyridin-2-ylmethoxy)indolizin-2-yl]-2,2-dimethylpropanoic acid]",67 nM
20,"COc1cncc(-c2ccc(C(=O)c3c(CC(C)(C)C(=O)O)c(C(=O)C(C)(C)C)c4cc(OCc5ccccn5)ccn34)cc2)c1 [3-[1-(2,2-dimethylpropanoyl)-3-{[4-(5-methoxypyridin-3-yl)phenyl]carbonyl}-7-(pyridin-2-ylmethoxy)indolizin-2-yl]-2,2-dimethylpropanoic acid]",22 nM
21,"CC(C)c1ccn2c(C(=O)c3ccc(-c4cccnc4)cc3)c(CC(C)(C)C(=O)O)c(C(=O)C(C)(C)C)c2c1 [3-[1-(2,2-dimethylpropanoyl)-7-(propan-2-yl)-3-{[4-(pyridin-3-yl)phenyl]carbonyl}indolizin-2-yl]-2,2-dimethylpropanoic acid]",165 nM
22,"CC(C)c1ccn2c(C(=O)c3ccc(C(F)(F)F)cc3)c(CC(C)(C)C(=O)O)c(C(=O)C(C)(C)C)c2c1 [3-[1-(2,2-dimethylpropanoyl)-7-(propan-2-yl)-3-{[4-(trifluoromethyl)phenyl]carbonyl}indolizin-2-yl]-2,2-dimethylpropanoic acid]",316 nM
23,"Cc1nc(COc2ccn3c(C(=O)c4ccccc4)c(CC(C)(C)C(=O)O)c(C(=O)C(C)(C)C)c3c2)cs1 [3-[1-(2,2-dimethylpropanoyl)-7-[(2-methyl-1,3-thiazol-4-yl)methoxy]-3-(phenylcarbonyl)indolizin-2-yl]-2,2-dimethylpropanoic acid]",101 nM
24,"CC(C)(C)C(=O)c1c(CC(C)(C)C(=O)O)c(C(=O)c2ccc(Cl)cc2)c2ccc(OCc3nc4ccccc4s3)cn12 [3-[6-(1,3-benzothiazol-2-ylmethoxy)-1-[(4-chlorophenyl)carbonyl]-3-(2,2-dimethylpropanoyl)indolizin-2-yl]-2,2-dimethylpropanoic acid]",9 nM
25,"COc1ccc(C(=O)c2c(CC(C)(C)C(=O)O)c(C(=O)C(C)(C)C)c3cc(OCc4nc(C)cs4)ccn23)cc1 [3-{1-(2,2-dimethylpropanoyl)-3-[(4-methoxyphenyl)carbonyl]-7-[(4-methyl-1,3-thiazol-2-yl)methoxy]indolizin-2-yl}-2,2-dimethylpropanoic acid]",3 nM
26,"Cc1ccc(C(=O)c2c(CC(C)(C)C(=O)O)c(C(=O)C(C)(C)C)c3cc(OCc4cccc(C)n4)ccn23)cc1 [3-{1-(2,2-dimethylpropanoyl)-3-[(4-methylphenyl)carbonyl]-7-[(6-methylpyridin-2-yl)methoxy]indolizin-2-yl}-2,2-dimethylpropanoic acid]",3 nM
27,"CC(C)(C)C(=O)c1c(CC(C)(C)C(=O)O)c(C(=O)c2ccc(Cl)cc2)c2ccc(OCc3ccccn3)cn12 [3-{1-[(4-chlorophenyl)carbonyl]-3-(2,2-dimethylpropanoyl)-6-(pyridin-2-ylmethoxy)indolizin-2-yl}-2,2-dimethylpropanoic acid]",79 nM
28,"Cc1nc(COc2ccc3c(C(=O)c4ccc(Cl)cc4)c(CC(C)(C)C(=O)NS(C)(=O)=O)c(C(=O)C(C)(C)C)n3c2)cs1 [3-{1-[(4-chlorophenyl)carbonyl]-3-(2,2-dimethylpropanoyl)-6-[(2-methyl-1,3-thiazol-4-yl)methoxy]indolizin-2-yl}-2,2-dimethyl-N-(methylsulfonyl)propanamide]",4 nM
